PubChem BioAssay AID192 (DTP/NCI, 2004)
Several values for one entry are separate records, joined by “and”; a condition that tells them apart may be missing. Equal entries are not always repeated. Toxic doses and inconclusive results are not listed.

System: BDF1 mice, B16 melanoma ip, median survival T/C
Assay: NCI In Vivo Anticancer Drug Screen. Data for tumor model B16 Melanoma (intraperitoneal) in B6D2F1 (BDF1) mice
Conditions: endpoint: median survival time, higher = longer survival
Procedure, shortened: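 Vehicle-treated animals serve as the reference (C); treated animals (T) are scored for survival or tumor size after tumor transplantation.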

[1] = dose: 12.5 mg/kg/injection, schedule: Q01DX009 (ip), vehicle: saline with Tween-80
[2] = dose: 25.0 mg/kg/injection, schedule: Q01DX009 (ip), vehicle: saline with Tween-80
[3] = dose: 50.0 mg/kg/injection, schedule: Q01DX009 (ip), vehicle: saline with Tween-80
[4] = dose: 100.0 mg/kg/injection, schedule: Q01DX009 (ip), vehicle: saline with Tween-80
[5] = dose: 200.0 mg/kg/injection, schedule: Q01DX009 (ip), vehicle: saline with Tween-80
[6] = dose: 100.0 mg/kg/injection, schedule: Q01DX009 (ip), vehicle: Klucel (hydroxypropylcellulose) (HPC)
[7] = dose: 200.0 mg/kg/injection, schedule: Q01DX009 (ip), vehicle: Klucel (hydroxypropylcellulose) (HPC)
[8] = dose: 0.5 mg/kg/injection, schedule: Q01DX009 (ip), vehicle: Klucel (hydroxypropylcellulose) (HPC)
[9] = dose: 1.0 mg/kg/injection, schedule: Q01DX009 (ip), vehicle: Klucel (hydroxypropylcellulose) (HPC)
[10] = dose: 50.0 mg/kg/injection, schedule: Q01DX009 (ip), vehicle: Klucel (hydroxypropylcellulose) (HPC)

Structure (SMILES): ClC1CCC[N-]C1.ClC1CCC[N-]C1.O=C(O)CC(=O)O.[Pt+2] (stereo not given)
- T/C [1]: 96 % of control
- T/C [2]: 95 % of control
- T/C [3]: 94 % of control
- T/C [4]: 93 % of control
- T/C [5]: 89 % of control

Structure (SMILES): CCCCOC(=O)c1ccc(NC(=O)Nc2ccccc2OC)cc1
- T/C [1]: 93 % of control
- T/C [2]: 100 % of control
- T/C [3]: 98 % of control

Structure (SMILES): COc1ccc(Br)cc1/C=N\NS(=O)(=O)c1ccc(C)cc1
- T/C [6]: 94 % of control
- T/C [4]: 90 % of control
- T/C [7]: 110 % of control
- T/C [5]: 95 % of control
- T/C (dose: 400.0 mg/kg/injection, schedule: Q01DX009 (ip), vehicle: Klucel (hydroxypropylcellulose) (HPC)): 100 % of control

Structure (SMILES): CNC(=O)Oc1c(C)occc1=O
- T/C (dose: 6.25 mg/kg/injection, schedule: Q01DX009 (ip), vehicle: saline): 100 % of control
- T/C (dose: 12.5 mg/kg/injection, schedule: Q01DX009 (ip), vehicle: saline): 90 % of control
- T/C (dose: 25.0 mg/kg/injection, schedule: Q01DX009 (ip), vehicle: saline): 100 % of control
- T/C (dose: 50.0 mg/kg/injection, schedule: Q01DX009 (ip), vehicle: saline): 97 % of control

Structure (SMILES): CC[C@H]1CN2CCc3cc(OC)c(OC)cc3[C@@H]2C[C@@H]1C[C@H]1NCCc2c1[nH]c1ccc(O)cc21
- T/C (dose: 0.25 mg/kg/injection, schedule: Q01DX009 (ip), vehicle: Klucel (hydroxypropylcellulose) (HPC)): 111 % of control
- T/C [8]: 114 % of control
- T/C [9]: 123 % of control

Structure (SMILES): CC[C@@H]1O[C@H]2O[C@@H](/C=C/C=C/C=C/c3oc(=O)cc(OC)c3C)[C@@H](O)[C@@]2(C)[C@]1(C)O
- T/C [8]: 94 % of control
- T/C [9]: 90 % of control
- T/C (dose: 2.0 mg/kg/injection, schedule: Q01DX009 (ip), vehicle: Klucel (hydroxypropylcellulose) (HPC)): 92 % of control

Structure (SMILES): Cc1cc(NS(=O)(=O)c2ccc(N)cc2)no1
- T/C (dose: 100.0 mg/kg/injection, schedule: Q04DX003 (ip), vehicle: Klucel (hydroxypropylcellulose) (HPC)): 97 % of control
- T/C (dose: 200.0 mg/kg/injection, schedule: Q04DX003 (ip), vehicle: Klucel (hydroxypropylcellulose) (HPC)): 97 % of control
- T/C (dose: 400.0 mg/kg/injection, schedule: Q04DX003 (ip), vehicle: Klucel (hydroxypropylcellulose) (HPC)): 93 % of control

Structure (SMILES): COc1cc2c(cc1OC)C(CCc1ccc(Cl)cc1)N(C)CC2 (stereo not given)
- T/C (dose: 25.0 mg/kg/injection, schedule: Q01DX009 (ip), vehicle: Klucel (hydroxypropylcellulose) (HPC)): 88 % of control
- T/C [10]: 93 % of control
- T/C [6]: 98 % of control
- T/C [7]: 93 % of control

Structure (SMILES): O=C1N(CC2CO2)CCN1CC1CO1 (stereo not given)
- T/C (dose: 12.5 mg/kg/injection, schedule: Q01DX009 (ip), vehicle: suspension in saline): 106 % of control
- T/C (dose: 25.0 mg/kg/injection, schedule: Q01DX009 (ip), vehicle: suspension in saline): 124 % of control
- T/C (dose: 100.0 mg/kg/injection, schedule: Q01DX009 (ip), vehicle: suspension in saline): 193 % of control

Structure (SMILES): Nc1ccc(S(=O)(=O)N/N=C/c2ccccc2[N+](=O)[O-])cc1
- T/C (dose: 3.13 mg/kg/injection, schedule: Q01DX009 (ip), vehicle: saline with Tween-80): 115 % of control
- T/C (dose: 6.25 mg/kg/injection, schedule: Q01DX009 (ip), vehicle: saline with Tween-80): 96 % of control and 123 % of control
- T/C [1]: 99 % of control and 122 % of control
- T/C [2]: 105 % of control
- T/C [3]: 118 % of control

Structure (SMILES): COc1cc2c[n+](C)c3c4cc(OC)c(OC)cc4ccc3c2cc1OC
- T/C (dose: 6.25 mg/kg/injection, schedule: Q01DX001 (ip), vehicle: saline with Tween-80): 109 % of control
- T/C (dose: 12.5 mg/kg/injection, schedule: Q01DX001 (ip), vehicle: saline with Tween-80): 100 % of control
- T/C (dose: 25.0 mg/kg/injection, schedule: Q01DX001 (ip), vehicle: saline with Tween-80): 105 % of control
- T/C (dose: 50.0 mg/kg/injection, schedule: Q01DX001 (ip), vehicle: saline with Tween-80): 88 % of control
- T/C [10]: 108 % of control
- T/C (dose: 100.0 mg/kg/injection, schedule: Q01DX001 (ip), vehicle: saline with Tween-80): 90 % of control
- T/C [6]: 102 % of control
